Reference: paper PMC9873307, “Methylone, a rapid acting entactogen with robust anxiolytic and antidepressant-like activity” (Frontiers in Psychiatry, 2023)
Like-named read-outs stand apart in the source and are kept apart here.

How the values were obtained:
[1] = cited from earlier work; for reduced immobility in the FST: FST literature
[2] = design: method as in PMID 10080230; conditions: cited from earlier work
male Sprague Dawley rats [3] = assay: Forced swim test (FST); type: in vivo, rat; conditions: for swimming vs vehicle: Figure 3G
Experimental: (§1) Male Sprague Dawley rats (Charles River Laboratories) weighing 180–200 g on arrival, were used for all behavioral studies, which took place at Melior Discovery (Exton, PA, USA). Rats acclimated to their home cages for at least 1 week before testing, were maintained in a controlled environment on a 12 h light/dark cycle, with no more than 2 rats per cage. Animals received ad libitum access to standard rodent chow and water and were assigned randomly to treatment groups. All animal use and procedures were in accordance with established protocols approved by the Melior IACUC committee, Melior Standard Operation Procedures (SOP), and Transcend Therapeutics. Distinct cohorts of animals were used for each experiment/Figure presented in this manuscript.
(§2) Methylone HCl (0.5–30 mg/kg; Cayman Chemical) or Fluoxetine HCl (10 mg/kg; Sigma-Aldrich) were formulated in sterile 0.9% saline vehicle before IP administration. Control animals received saline vehicle. Methylone or saline was administered 30 min prior to FST or OFT testing sessions. Fluoxetine or saline were administered 23.5, 5, and 1 h prior to testing, consistent with previous studies ([19]).
All studies were performed and scored by an experimenter blind to treatment group according to standard protocols at Melior Discovery (Exton, PA, USA) and based on published “modified FST” procedures ([20]). Briefly, rats were placed in a circular plexiglass container (29.2 cm diameter, 49.5 cm height) filled with water to a depth of 30 cm so rats could not support themselves by touching the bottom of the tank. Water was maintained at 22–25°C and was changed for every animal. Day 1 (Training) consisted of a 15 min acclimation trial, and Day 2 (Testing, 24 h later) consisted of the 5 min test. A time sampling procedure was employed where animals were observed every 5 s for the duration of the test session (60 counts or 5 min) and scored for immobility (defined as the failure to struggle), swimming (defined as a circular movement around the tank), or climbing (defined as an upward escape behavior). Data are expressed as the percent time spent immobile, swimming, or climbing for the 5-min testing session (e.g., the number of immobility counts divided by 60). Therefore, to extrapolate these values to time spent immobile in minutes, one can multiply the percent time immobile by 5 min.

male Sprague Dawley rats [4] = assay: Open field test (OFT): locomotor activity and time in center; type: in vivo, rat
Experimental: as §1, §2
All studies were performed by an experimenter blind to treatment group and according to standard protocols at Melior Discovery (Exton, PA, USA). The OFT was used to assess both locomotor activity and anxiety-like behavior. The OFT was run in a standard rat OFA chamber (17 ^^′′ × 17 ^^′′ × 12 ^^′′ , Med Associates). After habituation to the testing room and drug injection, rats were assessed for 30 min in the OFT using an automated activity monitoring system (MedAssociates). Locomotor activity was measured by recording the total ambulatory distance traveled (cm), reported in 5-min bins for the duration of the 30 min testing period. The center of the open field was defined as a 12 ^^′′ square, a predefined center setting on the MedAssociates analysis software. Time spent in the center of the open field, an anxiolytic measure, was also recorded for the 30 min testing period.

In the case of `CNC(C)Cc1ccc2c(c1)OCO2` (stereo not shown) [MDMA, 3,4-methylenedioxymethamphetamine], the “reduced immobility in the FST” value [1] is listed as 47–78%, the “reduction of immobility compared to vehicle controls” value ([1]; FST) is listed as 47–78% and the effect on anxiety ([2]; clinically relevant doses) is listed as “no effect”. The effect on anxiety ([2]; higher doses) was “anxiogenic”.

For `CN(C)CCc1c[nH]c2cccc(OP(=O)(O)O)c12` [psilocybin], the “reduced immobility in the FST” value [1] is given as 67%.

In the case of `Fc1ccc([C@@H]2CCNC[C@H]2COc2ccc3c(c2)OCO3)cc1` [paroxetine], the “reduced immobility in the FST” value [1] is given as 40%.

In the case of `CN[C@H]1CC[C@@H](c2ccc(Cl)c(Cl)c2)c2ccccc21` [sertraline], the “reduced immobility in the FST” value [1] is listed as 50–68%.

In the case of `CNC1(c2ccccc2Cl)CCCCC1=O` (stereo not shown) [ketamine], the “reduced immobility in the FST” value [1] is listed as 25–62%.

In the case of `CNCCCN1c2ccccc2CCc2ccccc21` [desipramine], the “reduced immobility in the FST” value [1] is given as 55–75%.

With `CNCCC(Oc1ccc(C(F)(F)F)cc1)c1ccccc1` (stereo not shown) [fluoxetine, reference compound] the “climbing behavior vs controls” value (male Sprague Dawley rats [3]; fluoxetine 10 mg/kg IP x3, Figure 1E) was “unaffected”, the “swimming behavior vs controls” value (male Sprague Dawley rats [3]; fluoxetine 10 mg/kg IP x3, Figure 1G) was “significantly increased” and the “climbing vs vehicle on retest” value (male Sprague Dawley rats [3]; fluoxetine 10 mg/kg IP x3, 1 h, 24, 72 h, Figure 3E) was “no effect on climbing”. The swimming vs vehicle (male Sprague Dawley rats [3]; fluoxetine 10 mg/kg IP x3, 1 h post-dose) was “significantly increased swimming”, the swimming vs vehicle (male Sprague Dawley rats [3]; fluoxetine 10 mg/kg IP x3, 24 h post-dose) was “small but significant increase in swimming” and the “immobility vs vehicle on retest” value (male Sprague Dawley rats [3]; fluoxetine 10 mg/kg IP x3, tested 1 h, retested 24 and 72 h later, Figure 3C) was “only showed a significant effect on immobility 1 h post-dose”. The “reduction/change in immobility vs vehicle control” value (male Sprague Dawley rats [3]; fluoxetine 10 mg/kg IP, three doses 23.5, 5, 1 h before testing) was 50%, the “swimming compared to vehicle” value (male Sprague Dawley rats [3]; fluoxetine 10 mg/kg x3 alone or with methylone 5 mg/kg, Figure 6D) was “significantly increased swimming” and the “duration of reduction in immobility” value (male Sprague Dawley rats [3]; fluoxetine 10 mg/kg, three doses within 24 h before testing) was “less than 24 h”. For the same compound, the “reduced immobility in the FST” value [1] was 56%, the “distance traveled, first 5 min” value (male Sprague Dawley rats [4]; fluoxetine 10 mg/kg IP x3, 1 h post-dose, Figure 4B) was “reduced distance traveled” and the “distance traveled over 30-min session, 5-min bins” value (male Sprague Dawley rats [4]; fluoxetine 10 mg/kg IP x3, Figure 4E) was “reduced distance traveled in the OFT for the first 15 min”. For the same compound, the “time spent in the center” value (male Sprague Dawley rats [4]; fluoxetine 10 mg/kg IP x3, Figure 5B) was “significantly reduced time spent in the center”.
